Legend:
[1] = Inhibition of Wnt/beta-catenin signalling in HEK293 cells assessed as reduction in luciferase activity incubated for 24 hrs by TOPFlash luciferase reporter assay; assay type: cell-based; settings: Homo sapiens, HEK293, 24 h
[2] = target: T1, Membrane-bound ghrelin O-acyltransferase MBOAT4 (Mus musculus, UniProt P0C7A3); test: Inhibition of N-terminal His-tagged mouse GOAT expressed in baculovirus infected insect cells
T1 sequence (P0C7A3 whole entry): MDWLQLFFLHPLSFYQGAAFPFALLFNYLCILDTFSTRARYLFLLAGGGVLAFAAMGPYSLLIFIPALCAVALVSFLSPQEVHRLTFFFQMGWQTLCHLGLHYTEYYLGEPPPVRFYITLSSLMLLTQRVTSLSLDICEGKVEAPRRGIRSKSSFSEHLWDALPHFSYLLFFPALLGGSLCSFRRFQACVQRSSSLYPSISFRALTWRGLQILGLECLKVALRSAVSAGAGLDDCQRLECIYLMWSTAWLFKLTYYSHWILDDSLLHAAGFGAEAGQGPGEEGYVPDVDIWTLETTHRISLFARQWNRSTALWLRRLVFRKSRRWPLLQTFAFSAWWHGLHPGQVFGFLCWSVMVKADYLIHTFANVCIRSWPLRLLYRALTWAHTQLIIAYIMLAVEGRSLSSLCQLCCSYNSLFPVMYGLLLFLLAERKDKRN

[3] = target: Acyl-protein thioesterase 2 (Homo sapiens, UniProt O95372); test: Inhibition of APT2 (unknown origin)
Acyl-protein thioesterase 2, sequence (O95372 whole entry): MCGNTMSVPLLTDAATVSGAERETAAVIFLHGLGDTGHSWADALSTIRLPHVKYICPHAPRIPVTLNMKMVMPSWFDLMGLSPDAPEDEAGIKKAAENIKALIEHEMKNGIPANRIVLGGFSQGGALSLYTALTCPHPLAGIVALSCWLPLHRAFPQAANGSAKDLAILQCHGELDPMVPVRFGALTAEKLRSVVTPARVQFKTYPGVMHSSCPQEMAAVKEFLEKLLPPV

[4] = target: T2, Phosphatidylserine lipase ABHD16A (Homo sapiens, UniProt O95870); test: Inhibition of recombinant human ABHD16A expressed in HEK293T cells incubated for 1 hr by fluorescence based analysis; assay type: cell-based
T2 sequence (O95870 whole entry): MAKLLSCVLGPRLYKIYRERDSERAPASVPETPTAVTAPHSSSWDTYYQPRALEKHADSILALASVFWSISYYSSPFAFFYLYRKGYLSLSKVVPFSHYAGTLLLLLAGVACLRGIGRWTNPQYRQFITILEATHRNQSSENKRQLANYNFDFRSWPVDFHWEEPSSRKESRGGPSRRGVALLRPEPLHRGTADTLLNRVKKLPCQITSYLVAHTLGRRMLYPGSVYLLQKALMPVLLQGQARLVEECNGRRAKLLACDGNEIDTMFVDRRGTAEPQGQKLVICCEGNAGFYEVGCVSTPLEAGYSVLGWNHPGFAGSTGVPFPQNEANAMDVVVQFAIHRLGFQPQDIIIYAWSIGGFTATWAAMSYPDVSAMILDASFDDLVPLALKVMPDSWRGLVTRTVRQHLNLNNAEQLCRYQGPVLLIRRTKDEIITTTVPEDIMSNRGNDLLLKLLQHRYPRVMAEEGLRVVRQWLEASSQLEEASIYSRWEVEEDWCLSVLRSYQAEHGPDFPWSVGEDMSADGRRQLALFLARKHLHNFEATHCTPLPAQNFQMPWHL

Homo sapiens = organism: Homo sapiens; test: Inhibition of ZDHHC (unknown origin) at 20 uM relative to control
[5] = target: Palmitoyltransferase ZDHHC7 (Homo sapiens, UniProt Q9NXF8); test: Inhibition of ZDHHC7 (unknown origin)
Palmitoyltransferase ZDHHC7, sequence (Q9NXF8 whole entry): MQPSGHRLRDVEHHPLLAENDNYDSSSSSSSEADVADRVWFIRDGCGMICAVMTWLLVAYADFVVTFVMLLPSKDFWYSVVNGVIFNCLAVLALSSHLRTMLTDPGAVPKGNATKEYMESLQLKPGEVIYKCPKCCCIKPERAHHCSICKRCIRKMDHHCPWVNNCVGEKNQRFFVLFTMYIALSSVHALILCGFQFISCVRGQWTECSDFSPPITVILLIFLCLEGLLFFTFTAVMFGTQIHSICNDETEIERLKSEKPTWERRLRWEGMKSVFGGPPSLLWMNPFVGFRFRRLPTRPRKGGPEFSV

[6] = target: T3, Palmitoyl-protein thioesterase ABHD10, mitochondrial (Homo sapiens, UniProt Q9NUJ1); test: Inhibition of ABHD10 (unknown origin)
T3 sequence (Q9NUJ1 whole entry): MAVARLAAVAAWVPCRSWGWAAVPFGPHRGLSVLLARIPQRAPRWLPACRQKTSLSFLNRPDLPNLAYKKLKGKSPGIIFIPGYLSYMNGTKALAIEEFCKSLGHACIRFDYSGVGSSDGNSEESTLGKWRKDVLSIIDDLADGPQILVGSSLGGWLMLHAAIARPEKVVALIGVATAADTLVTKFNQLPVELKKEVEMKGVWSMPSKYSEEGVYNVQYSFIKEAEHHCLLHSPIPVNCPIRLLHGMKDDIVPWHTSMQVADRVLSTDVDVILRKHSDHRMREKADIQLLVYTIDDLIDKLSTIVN

HCC4006 = test: cells; settings: Homo sapiens, HCC4006, 24 h
[7] = target: Palmitoyltransferase ZDHHC9 (Homo sapiens, UniProt Q9Y397); test: Binding affinity to ZDHHC9 (unknown origin) assessed as inhibition constant
Palmitoyltransferase ZDHHC9, sequence (Q9Y397 whole entry): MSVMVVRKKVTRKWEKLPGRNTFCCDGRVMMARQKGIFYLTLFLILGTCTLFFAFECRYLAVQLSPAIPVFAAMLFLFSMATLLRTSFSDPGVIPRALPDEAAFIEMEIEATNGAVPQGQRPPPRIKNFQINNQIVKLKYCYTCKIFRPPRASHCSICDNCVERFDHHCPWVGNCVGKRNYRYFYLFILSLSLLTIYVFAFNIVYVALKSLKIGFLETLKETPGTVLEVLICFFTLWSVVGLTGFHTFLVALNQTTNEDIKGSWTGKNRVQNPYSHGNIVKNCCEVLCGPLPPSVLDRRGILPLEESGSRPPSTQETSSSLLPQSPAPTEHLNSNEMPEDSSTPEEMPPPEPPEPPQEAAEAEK

[8] = target: T4, Membrane-bound ghrelin O-acyltransferase MBOAT4 (Homo sapiens, UniProt Q96T53); test: Inhibition of GOAT (unknown origin)
T4 sequence (Q96T53 whole entry): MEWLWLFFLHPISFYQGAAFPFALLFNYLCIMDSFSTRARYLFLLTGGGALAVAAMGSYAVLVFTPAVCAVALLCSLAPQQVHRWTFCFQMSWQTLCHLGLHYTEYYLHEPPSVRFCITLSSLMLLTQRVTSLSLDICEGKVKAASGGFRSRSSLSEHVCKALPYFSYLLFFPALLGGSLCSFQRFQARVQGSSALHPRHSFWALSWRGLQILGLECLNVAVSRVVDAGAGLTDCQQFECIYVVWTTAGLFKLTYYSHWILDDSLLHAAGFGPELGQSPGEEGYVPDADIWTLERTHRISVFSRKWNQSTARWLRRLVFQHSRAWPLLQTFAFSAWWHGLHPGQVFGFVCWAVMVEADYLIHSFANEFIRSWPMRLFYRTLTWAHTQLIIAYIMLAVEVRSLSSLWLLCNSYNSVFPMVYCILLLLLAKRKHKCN

[9] = Inhibition of SPT (unknown origin); design: species or system Homo sapiens
cells = settings: Homo sapiens, HEK-293T, 24 h
[10] = Inhibition of Wnt/beta-catenin signalling in Wnt3a stimulated HEK293 cells assessed as reduction in luciferase activity incubated for 24 hrs by TOPFlash luciferase reporter assay; assay type: cell-based; settings: Homo sapiens, HEK293, 24 h
[11] = target: Serine palmitoyltransferase 3 (Homo sapiens, UniProt Q9NUV7); test: Inhibition of SPTLC3 (unknown origin)
Serine palmitoyltransferase 3, sequence (Q9NUV7 whole entry, canonical isoform): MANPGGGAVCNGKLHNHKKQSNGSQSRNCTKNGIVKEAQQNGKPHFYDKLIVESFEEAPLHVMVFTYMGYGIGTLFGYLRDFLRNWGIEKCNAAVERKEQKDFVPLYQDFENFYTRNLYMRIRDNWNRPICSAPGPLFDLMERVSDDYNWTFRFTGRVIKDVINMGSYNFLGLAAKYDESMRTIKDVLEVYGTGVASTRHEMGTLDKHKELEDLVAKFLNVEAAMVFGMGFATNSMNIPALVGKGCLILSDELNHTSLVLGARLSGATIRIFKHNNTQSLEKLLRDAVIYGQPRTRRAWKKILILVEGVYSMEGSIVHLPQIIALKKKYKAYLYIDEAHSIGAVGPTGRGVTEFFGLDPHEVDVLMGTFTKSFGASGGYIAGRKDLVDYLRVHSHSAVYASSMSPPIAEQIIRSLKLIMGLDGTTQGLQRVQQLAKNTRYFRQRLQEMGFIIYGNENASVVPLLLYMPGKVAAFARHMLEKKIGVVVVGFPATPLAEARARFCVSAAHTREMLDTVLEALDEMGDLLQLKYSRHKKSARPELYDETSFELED

[12] = target: T5, Carnitine O-palmitoyltransferase 1, muscle isoform (Homo sapiens, UniProt Q92523); test: Inhibition of CPT1B (unknown origin) in KB cells; assay type: cell-based
T5 sequence (Q92523 whole entry): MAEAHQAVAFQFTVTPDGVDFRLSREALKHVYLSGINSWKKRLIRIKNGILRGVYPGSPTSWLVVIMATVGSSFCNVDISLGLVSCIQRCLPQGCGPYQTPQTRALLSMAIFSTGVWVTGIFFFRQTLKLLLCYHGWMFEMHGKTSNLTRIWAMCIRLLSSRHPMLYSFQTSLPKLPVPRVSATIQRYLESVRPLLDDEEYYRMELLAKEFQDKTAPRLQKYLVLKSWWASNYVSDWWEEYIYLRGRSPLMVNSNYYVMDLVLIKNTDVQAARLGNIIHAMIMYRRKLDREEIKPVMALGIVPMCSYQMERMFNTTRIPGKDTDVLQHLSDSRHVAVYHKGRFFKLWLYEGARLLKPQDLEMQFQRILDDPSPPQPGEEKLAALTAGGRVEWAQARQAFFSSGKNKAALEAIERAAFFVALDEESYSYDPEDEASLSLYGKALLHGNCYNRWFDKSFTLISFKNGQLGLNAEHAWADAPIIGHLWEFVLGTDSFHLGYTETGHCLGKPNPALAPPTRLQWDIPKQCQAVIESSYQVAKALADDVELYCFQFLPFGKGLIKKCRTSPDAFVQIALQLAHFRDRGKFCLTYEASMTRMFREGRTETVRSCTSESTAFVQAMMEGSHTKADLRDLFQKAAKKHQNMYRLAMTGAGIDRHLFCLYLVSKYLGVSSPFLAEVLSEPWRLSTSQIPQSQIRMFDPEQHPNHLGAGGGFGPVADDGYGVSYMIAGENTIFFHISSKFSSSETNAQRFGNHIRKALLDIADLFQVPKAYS

CCc1cc(=O)oc2c(C)c(OCC(=O)Nc3ccc(N4CCCCC4)cc3)ccc12
IC50 [1]: 710 nM

CCCCCCN(C(C)=O)C(C(=O)NCc1ccccc1)c1ccc2cc(O)ccc2c1 (centres undefined)
IC50 [2]: 7540 nM

C#CCCCCCCCC[C@@H]1OC(=O)[C@H]1CCCCS(=O)(=O)CCCN(C)C
IC50 [3]: 32.4 nM

COc1nn(-c2ccc(F)cc2)c(=O)o1
IC50 [4]: 30 nM

CCOc1ccc(NC(=O)CSc2nnc(-c3ccncc3)n2-c2ccccc2)cc1
IC50 [1]: 90 nM

N#CCC(=O)NCCc1ccc(OC(=O)c2cccc(Oc3ccccc3)c2)cc1
inhibition (Homo sapiens): 71.3%

CCCCCCCCCCCCCCC(Br)C(=O)OC (centres undefined)
IC50 [5]: 38000 nM

COc1ccc([C@@]23Oc4cc(OC)cc(OC)c4[C@]2(O)[C@@H]2OC(=O)[C@@H]2[C@H]3c2ccccc2)cc1
IC50 [6]: 100 nM

O=S(=O)(c1ccc2oc(-c3cccnc3)nc2c1)c1ccc2oc(-c3cccnc3)nc2c1
IC50 [1]: 16 nM

C=CC(=O)N(C)CCCCCCCCCCCCCC
inhibition (Homo sapiens): 67.3%

Cn1nc(C(F)(F)F)cc1C(=O)N[C@@H]1CCN(C(=O)c2cc(Cl)c3nccnc3c2)C[C@@H]1c1ccccc1
IC50 (HCC4006): 11 nM

COc1cc(C(=O)N2CC[C@H](NC(=O)c3ccccc3OC(F)(F)F)c3c2cnn3C(C)C)cnc1OC
IC50 (HCC4006): 3.9 nM

Cc1ccc2nc(NC(=O)CSc3nc4c(c(=O)n3-c3ccccc3)SCC4)sc2c1
IC50 [1]: 28 nM

C#CCCCN(C)CCCS(=O)(=O)CCCC[C@@H]1C(=O)O[C@H]1CCCCCCCCCC
IC50 [3]: 64.4 nM

CCCCCCCCCCCCCC1OC(=O)/C1=C\CCCCC(N)=O (centres undefined)
IC50 [4]: 200 nM

Cc1ccc2nc(NC(=O)CSc3nc4c(c(=O)n3C)SC(C)C4)sc2c1 (centres undefined)
IC50 [1]: 15 nM

CC(C)Cc1ccc(C(C)CN2CCNC[C@@H]2CCCCN2CCN(CC(C)c3ccc(CC(C)C)cc3)[C@@H](Cc3ccc(O)cc3)C2)cc1 (some centres undefined)
Ki [7]: 72000 nM

C#CCCCCCCCC[C@@H]1C(=O)O[C@H]1CCc1ccc(OC)c(OC)c1
IC50 [3]: 23.7 nM

CCCCCCCC(=O)NC[C@H](NC(=O)[C@H](CO)NC(=O)CN)C(=O)N[C@@H](Cc1ccccc1)C(=O)N[C@@H](CC(C)C)C(=O)N[C@@H](CO)C(=O)N1CCC[C@H]1C(=O)N[C@@H](CCC(=O)O)C(=O)N[C@@H](Cc1cnc[nH]1)C(=O)N[C@@H](CCC(N)=O)C(=O)N[C@@H](CCCCN)C(=O)N[C@@H](C)C(=O)N[C@@H](CCC(N)=O)C(=O)N[C@@H](CCC(N)=O)C(=O)N[C@@H](CCCNC(=N)N)C(=O)N[C@@H](CCCCN)C(=O)N[C@@H](CCC(=O)O)C(=O)N[C@@H](CO)C(=O)N[C@@H](CCCCN)C(=O)N[C@@H](CCCCN)C(=O)N1CCC[C@H]1C(=O)N1CCC[C@H]1C(=O)N[C@@H](C)C(=O)N[C@@H](CCCCN)C(=O)N[C@@H](CC(C)C)C(=O)N[C@@H](CCC(N)=O)C(=O)N1CCC[C@H]1C(=O)N[C@@H](CCCNC(=N)N)C(=O)O
IC50 [2]: 200 nM

Cc1nc(N)c(CCC2CCN(C(=O)[C@H](C)NC(=O)c3ccnn3C)CC2)c(Cl)n1
IC50 [8]: 60 nM

CCCCCCCCCC[C@@H]1C(=O)O[C@H]1CCc1ccc(OC)c(OC)c1 [PALMOSTATIN B]
IC50 [3]: 19.6 nM

CCCCCC[C@@H](O)CCCCCCCCC[C@H](CO)C(=O)O
IC50 [9]: 24 nM

Cc1c(-c2ccnc(C(F)(F)F)c2)ncn1CC(=O)Nc1ccc(-c2cnccn2)cn1 [ZAMAPORVINT]
IC50 (cells): 0.064 nM

C[C@H](C(=O)Nc1ccc(-c2ccsc2)cc1)n1cnc2c1c(=O)n(C)c(=O)n2C
IC50 [10]: 0.5 nM

CCCCCCCCN(C(C)=O)C(C(=O)NCc1ccccc1)c1ccc2cc(O)ccc2c1 (centres undefined)
IC50 [2]: 13100 nM

CCCCCCCC(C)(O)/C=C/[C@H](NC(=O)OCc1ccccc1)C(=O)OC (some centres undefined)
IC50 [8]: 1500 nM

CCCCCC[C@@H](O)CCCCCCCC[C@@H](O)[C@H](N)C(=O)O
IC50 [9]: 224 nM

CC(C)Cc1c(C#N)c(N)nc(SCC(=O)c2ccc(-c3ccccc3)cc2)c1C#N
IC50 [1]: 10 nM

COc1ccc(C(=O)N2CC[C@H](NC(=O)c3ccccc3OC(F)(F)F)c3c2cnn3CCCCCNC(=O)CCC2=[N+]3C(=Cc4c(C)cc(C)n4[B-]3(F)F)C=C2)cc1OC
IC50 [11]: 0.8 nM

O=C(Cn1cc(I)c(=O)c(I)c1)Nc1ccc(-c2ccccc2)cn1
IC50 [10]: 20 nM

Cn1c(=O)c2c(ncn2CC(=O)Nc2ccc(-c3ccccc3)nn2)n(C)c1=O [ETC-159]
IC50 (cells): 2.9 nM

Cc1nc(N)c2c(CCc3ccc(C(=O)O)cc3)coc2n1
IC50 [8]: 170 nM

COc1nn(-c2cccc([N+](=O)[O-])c2)c(=O)o1
IC50 [4]: 60 nM

NC(=O)CCCC/C=C1\C(=O)OC1CCc1ccccc1 (centres undefined)
IC50 [4]: ≥ 10000 nM

Cc1cc(-c2ncc(CC(=O)Nc3ccc(-c4cnccn4)cn3)cc2C)ccn1 [WNT-974]
IC50 (cells): 0.2 nM

CC(C)CCCC(=O)CCCCCCC(=O)CCN(O)C(=O)[C@@H](N)CO
IC50 [9]: 21 nM

O=C(O)C(=O)c1ccc(OCCOc2ccc3ccccc3c2)s1
IC50 [12]: 16000 nM

CCCCCCCCCC[C@@H]1OC(=O)[C@H]1CCCCS(=O)(=O)CCCN(C)C
IC50 [3]: 36.7 nM

CC[C@@]1(c2cccc(C)c2)C(=O)N(C(=O)OC)N1C(=O)OC
IC50 [6]: 210 nM

CC[C@@]1(c2ccc(C)cc2)C(=O)N(C(=O)OC(C)C)N1C(=O)OC(C)C
IC50 [6]: 30 nM

COc1ccc(-n2nc(C(=O)NCC(=O)Nc3nc4ccc(OC)cc4s3)c3ccccc3c2=O)cc1
IC50 [1]: 58 nM

CCCCCC[C@@H](O)CCCCCC/C=C/[C@H](O)[C@@H](O)[C@H](O)[C@H](N)C(=O)O
IC50 [9]: 20 nM

COc1ccc(C(=O)N2CC[C@H](NC(=O)c3ccccc3Cl)c3c2cnn3C(C)C)cc1OC
IC50 [11]: 4 nM

CCCCCC[C@@H](O)CCCCCC/C=C/[C@H](OC(C)=O)[C@@H](O)[C@H](O)[C@H](N)C(=O)O
IC50 [9]: 100 nM
